Data taken from US11325919B1, “Synthetic novel pyrroloiminoquinone alkaloid and method of use” (priority 2019, dated 2022).
“Also recorded” adds a separate entry of the source.

Columns and labels:
LNCaP = experiment: differential cytotoxicity zone assay, LNCaP; assay type: cell-based, human
Source text: (§1) Discorhabdin A is the precursor to aleutianamine.

H-125 = experiment: differential cytotoxicity zone assay, H-125; assay type: cell-based
Source text: as §1

OVC-5 = experiment: differential cytotoxicity zone assay, OVC-5; assay type: cell-based
Source text: as §1

MCF-7 = experiment: differential cytotoxicity zone assay, MCF-7; assay type: cell-based, human
Source text: as §1

[1] = tested on: human HCT-116 colon cancer cells; experiment: cytotoxicity IC50, HCT-116 colon cancer cells; assay type: cell-based
U251N = experiment: differential cytotoxicity zone assay, U251N; assay type: cell-based
Source text: as §1

PANC-1 = experiment: differential cytotoxicity zone assay, PANC-1; assay type: cell-based, human
Source text: as §1

CEM = experiment: differential cytotoxicity zone assay, CEM; assay type: cell-based, human
Source text: as §1

[2] = tested on: solid tumor cell lines compared to murine and human leukemia cells; experiment: differential cytotoxicity zone assay, solid tumor selectivity versus leukemia cells; assay type: cell-based
Source text: as §1

H-116 = experiment: differential cytotoxicity zone assay, H-116; assay type: cell-based, human
Source text: as §1

MDA = experiment: differential cytotoxicity zone assay, MDA; assay type: cell-based
Source text: as §1

[3] = tested on: PANC-1 pancreatic cancer cells; experiment: cytotoxicity IC50, PANC-1 pancreatic cancer cells; assay type: cell-based; settings: Homo sapiens; pancreatic cancer (PANC-1)
HCT-116 cells = experiment: clonogenic studies, concentration-survival as function of exposure time; assay type: cell-based, human
Description: Clonogenic studies were carried out using HCT-116 cells to define the concentration-survival relationship as a function of exposure time.^26 The endpoint used, tS10 (10% survival of clonogenic cells for exposure time t) provides information essential for future preclinical therapeutic studies. These clonogenic studies based on formula II yielded a 2S10 value of >5 μM; a 24S10 value of 0.75 μM; and a 168S10 value of 0.1 μM. […] Compounds shown in Formula I are simple modifications and bio-isosteres and would have similar activity to the compound of formula II.

Colon 38 = experiment: differential cytotoxicity zone assay, Colon 38; assay type: cell-based, murine
Source text: as §1

L1210 = experiment: differential cytotoxicity zone assay, L1210; assay type: cell-based, murine
Source text: as §1

CFU-GM = experiment: differential cytotoxicity zone assay, CFU-GM; assay type: cell-based
Source text: as §1

topoisomerase II = settings: cited from earlier work
solid human tumor = solid human tumor model; cited from earlier work

Compound `O=C1C2=C3C4=[N+](CCc5c[nH]c1c54)[C@@H]1C[C@]34S[C@@H](C=C4C=C1Br)N2` [Aleutianamine] has a zones of inhibition (LNCaP; Conc. 1/16) of 1000 mm, a zones of inhibition (LNCaP; Conc. 1/64) of 500 mm and a zones of inhibition (H-125; Conc. 1/16) of 900 mm. For the same compound, the zones of inhibition (H-125; Conc. 1/64) was 400 mm, the zones of inhibition (H-125; Conc. ¼) was >1000 mm and the zones of inhibition (OVC-5; Conc. 1/16) was 700 mm. The zones of inhibition (OVC-5; Conc. 1/64) was 350 mm, the zones of inhibition (OVC-5; Conc. ¼) was 900 mm and the zones of inhibition (MCF-7; Conc. 1/16) was >1000 mm. For the same compound, the zones of inhibition (MCF-7; Conc. 1/64) was 600 mm, the zones of inhibition (MCF-7; Conc. ¼) was >1000 mm and the IC50 ([1]; colon cancer (H116)) was 1000 nM. For the same compound, the IC50 ([1]; colon cancer (H116 / HCT-116)) was 1000 nM, the zones of inhibition (U251N; Conc. 1/16) was 850 mm and the zones of inhibition (U251N; Conc. 1/64) was 700 mm. The zones of inhibition (U251N; Conc. ¼) was >1000 mm, the zones of inhibition (PANC-1; Conc. 1/16) was >1000 mm and the zones of inhibition (PANC-1; Conc. 1/64) was 650 mm. For the same compound, the zones of inhibition (CEM; Conc. 1/16) was 750 mm, the zones of inhibition (CEM; Conc. 1/64) was 350 mm and the zones of inhibition (CEM; Conc. ¼) was 900 mm. The “selectivity of cell killing” value [2] was “solid tumor selectivity; also recorded: highly potent and selective for pancreatic and breast cancer as well as gliobastoma”, the zones of inhibition (H-116; Conc. 2 mg/ml) was >1000 mm and the zones of inhibition (H-116; Conc. 1/16) was 600 mm. It also gave a zones of inhibition (H-116; Conc. 1/64) of 250 mm, a zones of inhibition (H-116; Conc. ¼) of 950 mm and a zones of inhibition (MDA; Conc. 1/16) of 800 mm. For the same compound, the zones of inhibition (MDA; Conc. 1/64) was 500 mm, the zones of inhibition (MDA; Conc. ¼) was >1000 mm and the IC50 [3] was 25 nM. The “2S10 (10% survival of clonogenic cells for exposure time t)” value (HCT-116 cells; exposure time 2) was > 5 µM, the “24S10 (10% survival of clonogenic cells for exposure time t)” value (HCT-116 cells; exposure time 24) was 0.75 µM and the “168S10 (10% survival of clonogenic cells for exposure time t)” value (HCT-116 cells; exposure time 168) was 0.1 µM. For the same compound, the zones of inhibition (Colon 38; Conc. 2 mg/ml) was >1000 mm, the zones of inhibition (Colon 38; Conc. 1/16) was 900 mm and the zones of inhibition (Colon 38; Conc. 1/64) was 450 mm. The zones of inhibition (Colon 38; Conc. ¼) was >1000 mm, the zones of inhibition (L1210; Conc. 2 mg/ml) was 950 mm and the zones of inhibition (L1210; Conc. 1/16) was 500 mm. For the same compound, the zones of inhibition (L1210; Conc. 1/64) was 250 mm, the zones of inhibition (L1210; Conc. ¼) was 700 mm and the zones of inhibition (CFU-GM; Conc. 1/16) was >1000 mm. The zones of inhibition (CFU-GM; Conc. 1/64) was 750 mm and the zones of inhibition (CFU-GM; Conc. ¼) was >1000 mm.
In the case of `O=C1CC2SC3C[C@]2(C=C1Br)C1=C(N3)C(=O)c2[nH]cc3c2C1=NCC3` (stereo partly drawn) [Discorhabdin A, discorhabdin A], the zones of inhibition (LNCaP; Conc. 1/16) is reported as 500 mm, the zones of inhibition (LNCaP; Conc. 1/64) is reported as 250 mm and the zones of inhibition (H-125; Conc. 1/16) is reported as 750 mm. It also gave a zones of inhibition (H-125; Conc. 1/64) of 400 mm, a zones of inhibition (H-125; Conc. ¼) of 950 mm and a zones of inhibition (OVC-5; Conc. 1/16) of 500 mm. It also gave a zones of inhibition (OVC-5; Conc. 1/64) of 200 mm, a zones of inhibition (OVC-5; Conc. ¼) of 700 mm and a zones of inhibition (MCF-7; Conc. 1/16) of 600 mm. The zones of inhibition (MCF-7; Conc. 1/64) was 350 mm, the zones of inhibition (MCF-7; Conc. ¼) was 800 mm and the “inhibition of topoisomerase II” value (topoisomerase II) was “no inhibition”. The zones of inhibition (U251N; Conc. 1/16) was 300 mm, the zones of inhibition (U251N; Conc. 1/64) was 200 mm and the zones of inhibition (U251N; Conc. ¼) was 300 mm. It also gave a zones of inhibition (PANC-1; Conc. 1/16) of 150 mm, a zones of inhibition (PANC-1; Conc. 1/64) of 100 mm and a zones of inhibition (PANC-1; Conc. ¼) of 450 mm. The zones of inhibition (CEM; Conc. 1/16) was 100 mm, the zones of inhibition (CEM; Conc. 1/64) was 50 mm and the zones of inhibition (CEM; Conc. ¼) was 450 mm. The zones of inhibition (H-116; Conc. 2 mg/ml) was >1000 mm, the zones of inhibition (H-116; Conc. 1/16) was 500 mm and the zones of inhibition (H-116; Conc. ¼) was 900 mm. It also gave a zones of inhibition (MDA; Conc. 1/16) of 500 mm, a zones of inhibition (MDA; Conc. 1/64) of 300 mm and a zones of inhibition (MDA; Conc. ¼) of 1000 mm. For the same compound, the zones of inhibition (Colon 38; Conc. 2 mg/ml) was 750 mm, the zones of inhibition (Colon 38; Conc. 1/16) was 700 mm and the zones of inhibition (Colon 38; Conc. ¼) was 800 mm. It also gave a zones of inhibition (L1210; Conc. 2 mg/ml) of 1000 mm, a zones of inhibition (L1210; Conc. 1/16) of 250 mm and a zones of inhibition (L1210; Conc. ¼) of 300 mm. The zones of inhibition (CFU-GM; Conc. 1/16) was 300 mm and the zones of inhibition (CFU-GM; Conc. ¼) was >1000 mm.
For `C[C@H]([C@H](O)CCC(C)(C)O)[C@H]1CC[C@@]2(O)C3=CC(=O)[C@@H]4C[C@@H](O)[C@@H](O)C[C@]4(C)[C@H]3CC[C@]12C` [Ecdysone], the zones of inhibition (LNCaP; Conc. 2 mg/ml) was 0 mm, the zones of inhibition (H-125; Conc. 2 mg/ml) was 0 mm and the zones of inhibition (OVC-5; Conc. 2 mg/ml) was 0 mm. For the same compound, the zones of inhibition (MCF-7; Conc. 2 mg/ml) was 0 mm, the zones of inhibition (U251N; Conc. 2 mg/ml) was 0 mm and the zones of inhibition (PANC-1; Conc. 2 mg/ml) was 0 mm. It also gave a zones of inhibition (H-116; Conc. 2 mg/ml) of 0 mm, a zones of inhibition (MDA; Conc. 2 mg/ml) of 0 mm and a zones of inhibition (Colon 38; Conc. 2 mg/ml) of 0 mm. It also gave a zones of inhibition (L1210; Conc. 2 mg/ml) of 0 mm.
In the case of `Cn1cc2c3c1C(=O)C(N)=CC3=NCC2` [Makaluvamine A], the tumor size (solid human tumor) is listed as “decrease tumor size”.
In the case of `C[N+]1=C2C=C(N)C(=O)c3[nH]cc(c32)CC1.[Cl-]` [Makaluvamine C], the tumor size (solid human tumor) is given as “decrease tumor size”.
For karlotoxin 2, the zones of inhibition (LNCaP; Conc. 2 mg/ml) was 400 mm, the zones of inhibition (H-125; Conc. 2 mg/ml) was 100 mm and the zones of inhibition (OVC-5; Conc. 2 mg/ml) was 200 mm. It also gave a zones of inhibition (MCF-7; Conc. 2 mg/ml) of 200 mm, a zones of inhibition (U251N; Conc. 2 mg/ml) of 150 mm and a zones of inhibition (PANC-1; Conc. 2 mg/ml) of 200 mm. It also gave a zones of inhibition (CEM; Conc. 2 mg/ml) of 100 mm, a zones of inhibition (H-116; Conc. 2 mg/ml) of 200 mm and a zones of inhibition (MDA; Conc. 2 mg/ml) of 200 mm. For the same compound, the zones of inhibition (Colon 38; Conc. 2 mg/ml) was 200 mm and the zones of inhibition (L1210; Conc. 2 mg/ml) was 150 mm.
